Laboratory results from patent USRE43932E1, “Crystal modification of a N-phenyl-2-pyrimidineamine derivative, processes for its manufacture and its use” (Novartis AG, priority 1997, dated 2013).

Experiments:
PDGF receptor = assay: PDGF-stimulated receptor tyrosine kinase activity in PDGF receptor immune complexes of BALB/c 3T3 cells; type: biochemical
Method: The inhibition of PDGF-stimulated receptor tyrosine kinase activity in vitro is measured in PDGF receptor immune complexes of BALB/c 3T3 cells, as described by E. Andrejauskas-Buchdunger and U. Regenass in Cancer Research 52, 5353-5358 (1992).

[1] = test system: angiogenic effect of growth factors (VEGF, PDGF, bFGF); assay: Subcutaneous agar chamber angiogenesis model with growth factor; type: in vivo, mice (C57 BL/6); conditions: mice, oral dose of 50 mg/kg once daily, chambers removed after 5 days
Method: Dosing is started one day before implantation of the chambers. The chambers are removed after 5 days. The angiogenic efficacy is quantified by measuring both the vascularised tissue which has grown around the implant and the blood content of this tissue (external blood). The blood is determined by measuring the haemoglobin.

[2] = test system: denuded left common carotid artery; assay: Rat carotid artery denudation, cell counts and BrdU labelling; type: in vivo, male Wistar rats
[3] = Flow properties of the crystals; type: physicochemical; conditions: for solid dosage forms
[4] = test system: tracheal allogenic transplants; conditions: 50 mg/kg combined with CsA 1 mg/kg s.c.
Text: In contrast to patients without OB, those with OB often show an elevated PDGF concentration in bronchoalveolar lavage fluids.

denuded thoracic aorta = assay: Rat thoracic aorta denudation, cell counts; type: in vivo, male Wistar rats; conditions: rats, 50 mg/kg i.p. per day

Cc1ccc(NC(=O)c2ccc(CN3CCN(C)CC3)cc2)cc1Nc1nccc(-c2cccnc2)n1 [compound of formula I]
PDGF-dependent acellular receptor phosphorylation (PDGF receptor): inhibits
Angiogenic effect of growth factors (VEGF, PDFG, bFGF) [1]: inhibits

CS(=O)(=O)O.Cc1ccc(NC(=O)c2ccc(CN3CCN(C)CC3)cc2)cc1Nc1nccc(-c2cccnc2)n1 [β-crystal form]
Absolute number of BrdU-labelled cells in the intima, media, and adventitia ([2]; first two labelling periods (0-72 and 72-96 h)): slight decrease
Number of BrdU-labelled cells in all compartments ([2]; labelling after 93-96 h): decrease
Cell count for smooth-muscle cells in the carotid ([2]; rats, 50 mg/kg i.p. per day, 4 days after denudation): significant decrease
Cell count in the adventitia and the media ([2]; rats, 50 mg/kg i.p. per day, carotid denudation): significant reduction
Flow properties [3]: substantially more favourable than those of the α-crystal form
Effect of combination with CsA [4]: synergism
Number of smooth-muscle cells in aorta-denuded animals (denuded thoracic aorta): Decreases

CS(=O)(=O)O.Cc1ccc(NC(=O)c2ccc(CN3CCN(C)CC3)cc2)cc1Nc1nccc(-c2cccnc2)n1 [α-crystal form]
Flow properties [3]: unfavourable
